According to ChEMBL document CHEMBL4507326, “Data for DCP probe TP-030-2” (2021):

How the values were obtained:
Ephrin type-A receptor 3 = Ephrin type-A receptor 3 (Homo sapiens, UniProt P29320); assay: EphA3(EPA3LGD5) Takeda global kinase panel
[1] = target: Mitogen-activated protein kinase kinase kinase kinase 1 (Homo sapiens, UniProt Q92918); assay: HPK1(M4K1LGY1) Takeda global kinase panel
[2] = target: Endothelin-1 receptor (Homo sapiens) (UniProt P25101); settings: Compound concentration 10.0 uM
[3] = target: Mitogen-activated protein kinase 14 (Homo sapiens, UniProt Q16539); assay: p38alpha(MP14LGI1) Takeda global kinase panel
[4] = target: 5-hydroxytryptamine receptor 7 (Homo sapiens) (UniProt P34969); settings: Compound concentration 10.0 uM
[5] = target: Epidermal growth factor receptor (Homo sapiens, UniProt P00533); assay: Inhibition of Epidermal Growth Factor (EGF) at 10 µM in the Eurofins-Panlabs radioligand binding assay (Eurofins_assay_225510); settings: Compound concentration 10.0 uM
[6] = target: Non-receptor tyrosine-protein kinase TYK2 (Homo sapiens, UniProt P29597); assay: Tyk2(TYK2LGF1) Takeda global kinase panel
[7] = target: Substance-P receptor (Homo sapiens) (UniProt P25103); assay: Inhibition of Tachykinin NK1 at 10 µM in the Eurofins-Panlabs radioligand binding assay (Eurofins_assay_255520); design: ligand concentration 0.8 nM; settings: Compound concentration 10.0 uM
[8] = target: Cyclin-dependent kinase 1 (Homo sapiens, UniProt P06493); assay: CDC2 [CDK1(CDK1CGS1)] Takeda global kinase panel
[9] = target: Sodium-dependent noradrenaline transporter (Homo sapiens) (UniProt P23975); settings: Compound concentration 10.0 uM
Mus musculus = organism: Mus musculus; assay: Inhibition of Phorbol Ester at 10 µM in the Eurofins-Panlabs radioligand binding assay (Eurofins_assay_264500); design: ligand concentration 3 nM; settings: Compound concentration 10.0 uM
[10] = target: Insulin receptor-related protein (Homo sapiens, UniProt P14616); assay: IRR(INSSLGF1) Takeda global kinase panel
Insulin receptor-related protein, sequence (P14616 27-742 limits assumed): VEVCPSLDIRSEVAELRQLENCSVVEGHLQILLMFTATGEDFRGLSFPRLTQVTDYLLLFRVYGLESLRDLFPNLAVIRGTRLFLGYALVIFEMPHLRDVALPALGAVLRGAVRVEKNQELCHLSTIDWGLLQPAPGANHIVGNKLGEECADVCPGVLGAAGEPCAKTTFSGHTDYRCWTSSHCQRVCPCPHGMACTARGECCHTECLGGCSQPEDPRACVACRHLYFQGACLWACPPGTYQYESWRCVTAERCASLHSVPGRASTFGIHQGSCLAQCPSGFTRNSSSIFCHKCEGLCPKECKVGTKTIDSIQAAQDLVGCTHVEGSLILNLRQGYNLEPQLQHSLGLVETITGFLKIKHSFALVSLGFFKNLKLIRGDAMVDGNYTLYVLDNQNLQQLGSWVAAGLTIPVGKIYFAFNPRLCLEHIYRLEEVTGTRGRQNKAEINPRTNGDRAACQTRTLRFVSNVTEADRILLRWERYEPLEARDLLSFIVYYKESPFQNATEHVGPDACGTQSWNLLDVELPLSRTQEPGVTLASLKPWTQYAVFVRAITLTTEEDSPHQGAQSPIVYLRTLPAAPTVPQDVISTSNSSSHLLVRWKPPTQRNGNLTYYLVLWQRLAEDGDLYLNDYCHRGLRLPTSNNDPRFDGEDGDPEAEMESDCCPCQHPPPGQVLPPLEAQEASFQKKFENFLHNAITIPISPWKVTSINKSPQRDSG
Insulin receptor-related protein, sequence (P14616 747-1297 limits assumed): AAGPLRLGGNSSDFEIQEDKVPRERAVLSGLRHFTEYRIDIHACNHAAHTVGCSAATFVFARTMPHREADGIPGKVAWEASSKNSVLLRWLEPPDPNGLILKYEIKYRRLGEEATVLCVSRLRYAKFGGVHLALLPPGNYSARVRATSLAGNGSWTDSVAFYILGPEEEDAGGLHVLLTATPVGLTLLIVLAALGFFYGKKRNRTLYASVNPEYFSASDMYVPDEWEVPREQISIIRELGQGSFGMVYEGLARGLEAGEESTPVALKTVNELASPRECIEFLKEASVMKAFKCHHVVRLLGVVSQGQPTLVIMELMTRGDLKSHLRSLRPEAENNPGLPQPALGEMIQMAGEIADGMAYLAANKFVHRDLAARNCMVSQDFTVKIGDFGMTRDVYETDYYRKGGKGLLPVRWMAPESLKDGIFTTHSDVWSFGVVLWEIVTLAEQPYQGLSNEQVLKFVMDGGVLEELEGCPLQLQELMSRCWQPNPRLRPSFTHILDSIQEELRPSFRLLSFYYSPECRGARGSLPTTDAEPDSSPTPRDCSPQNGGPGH

[11] = target: Adenosine receptor A3 (Homo sapiens) (UniProt P0DMS8); settings: Compound concentration 10.0 uM
Adenosine receptor A3 (Homo sapiens), sequence (P0DMS8 whole entry): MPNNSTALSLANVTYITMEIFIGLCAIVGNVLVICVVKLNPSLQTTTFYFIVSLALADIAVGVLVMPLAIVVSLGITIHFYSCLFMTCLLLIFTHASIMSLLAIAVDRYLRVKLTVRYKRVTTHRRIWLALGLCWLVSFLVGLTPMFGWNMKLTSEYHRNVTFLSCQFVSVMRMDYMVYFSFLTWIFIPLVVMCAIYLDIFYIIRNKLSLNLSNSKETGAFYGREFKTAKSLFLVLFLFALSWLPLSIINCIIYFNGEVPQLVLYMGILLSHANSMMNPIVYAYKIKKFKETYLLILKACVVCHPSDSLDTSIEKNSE

Activin receptor type-1 = Activin receptor type-1 (Homo sapiens, UniProt Q04771); assay: ALK2(ACV1LGF1) Takeda global kinase panel
[12] = target: Alpha-2C adrenergic receptor (Homo sapiens) (UniProt P18825); settings: Compound concentration 10.0 uM
[13] = target: Endothelin receptor type B (Homo sapiens) (UniProt P24530); settings: Compound concentration 10.0 uM
[14] = target: 5-hydroxytryptamine receptor 1A (Homo sapiens) (UniProt P08908); settings: Compound concentration 10.0 uM
[15] = target: Serine/threonine-protein kinase Nek2 (Homo sapiens, UniProt P51955); assay: Nek2(NEK2LHFA) Takeda global kinase panel
[16] = target: Non-receptor tyrosine-protein kinase TNK1 (Homo sapiens, UniProt Q13470); assay: Tnk1(TNK1LGY1) Takeda global kinase panel
[17] = target: L-type calcium channel, benzothiazepine site (Cav1.2 alpha-1C) (Homo sapiens, UniProt Q13936); assay: Inhibition of Calcium Channel L-Type, Benzothiazepine at 10 µM in the Eurofins-Panlabs radioligand binding assay (Eurofins_assay_214510); design: ligand concentration 2 nM, non-specific ligand with concentration 10 µM Diltiazem, incubation time 3h, incubation temperature 4 °C; settings: male, Wistar, rat, rat whole brain preparation, probe [3H] Diltiazem; compound concentration 10 uM; target entry is the homologue from another species
[18] = target: Hormonally up-regulated neu tumor-associated kinase (Homo sapiens, UniProt P57058); assay: HUNK(HUNKLGRN) Takeda global kinase panel
[19] = target: Mitogen-activated protein kinase 3 (Homo sapiens, UniProt P27361); assay: ERK1(MAP3LGY1) Takeda global kinase panel
[20] = target: Neuropeptide Y receptor type 2 (Homo sapiens) (UniProt P49146); assay: Inhibition of Neuropeptide Y Y2 at 10 µM in the Eurofins-Panlabs radioligand binding assay (Eurofins_assay_257110); settings: Compound concentration 10.0 uM
[21] = target: Tyrosine-protein kinase Srms (Homo sapiens, UniProt Q9H3Y6); assay: Srm(SRMSLGY1) Takeda global kinase panel
[22] = target: 5'-AMP-activated protein kinase catalytic subunit alpha-2 (Homo sapiens, UniProt P54646); assay: AMPKalpha2(PRA2LGY1) Takeda global kinase panel
[23] = target: Serine/threonine-protein kinase pim-2 (Homo sapiens, UniProt Q9P1W9); assay: Pim2(PIM2LHY1) Takeda global kinase panel
[24] = target: Histamine H1 receptor (Homo sapiens) (UniProt P35367); settings: Compound concentration 10.0 uM
Histamine H1 receptor (Homo sapiens), sequence (P35367 whole entry): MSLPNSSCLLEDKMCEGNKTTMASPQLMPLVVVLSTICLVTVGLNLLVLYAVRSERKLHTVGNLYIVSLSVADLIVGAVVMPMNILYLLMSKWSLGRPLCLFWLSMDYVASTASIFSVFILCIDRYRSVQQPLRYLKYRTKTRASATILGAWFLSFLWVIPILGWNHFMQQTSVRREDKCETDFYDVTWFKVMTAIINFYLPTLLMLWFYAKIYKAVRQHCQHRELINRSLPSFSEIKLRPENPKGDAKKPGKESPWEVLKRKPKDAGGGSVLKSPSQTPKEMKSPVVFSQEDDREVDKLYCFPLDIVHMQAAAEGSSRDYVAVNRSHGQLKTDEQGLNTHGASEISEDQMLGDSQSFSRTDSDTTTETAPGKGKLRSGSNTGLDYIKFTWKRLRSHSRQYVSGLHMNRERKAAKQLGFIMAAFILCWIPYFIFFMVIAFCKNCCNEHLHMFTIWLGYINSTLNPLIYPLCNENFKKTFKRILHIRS

[25] = target: Mast/stem cell growth factor receptor Kit (Homo sapiens, UniProt P10721); assay: Kit(KIT1MGC1) Takeda global kinase panel
[26] = target: Protein-tyrosine kinase 2-beta (Homo sapiens, UniProt Q14289); assay: PYK2(PT2BLHF1) Takeda global kinase panel
[27] = target: Serine/threonine-protein kinase Sgk2 (Homo sapiens, UniProt Q9HBY8); assay: SGK2(SGK2LGE5) Takeda global kinase panel
[28] = target: Muscarinic acetylcholine receptor M3 (Homo sapiens) (UniProt P20309); settings: Compound concentration 10.0 uM
[29] = target: Cyclin-dependent kinase 16 (Homo sapiens, UniProt Q00536); assay: PCTAIRE1(CD16SGS1) Takeda global kinase panel
[30] = target: Serine/threonine-protein kinase Nek9 (Homo sapiens, UniProt Q8TD19); assay: Nek9(NEK9LGF1) Takeda global kinase panel
Ephrin type-A receptor 5 = Ephrin type-A receptor 5 (Homo sapiens, UniProt P54756); assay: EphA5(EPA5MGF1) Takeda global kinase panel
[31] = target: Serine/threonine-protein kinase D3 (Homo sapiens, UniProt O94806); assay: PKD3(PRD3LGG5) Takeda global kinase panel
[32] = target: Mitogen-activated protein kinase kinase kinase kinase 4 (Homo sapiens, UniProt O95819); assay: HGK [ZC1(M4K4CGP1)] Takeda global kinase panel
[33] = target: Cyclin-dependent kinase 18 (Homo sapiens, UniProt Q07002); assay: PCTAIRE3(CD18SGS1) Takeda global kinase panel
Cyclin-dependent kinase 18, sequence (Q07002 whole entry): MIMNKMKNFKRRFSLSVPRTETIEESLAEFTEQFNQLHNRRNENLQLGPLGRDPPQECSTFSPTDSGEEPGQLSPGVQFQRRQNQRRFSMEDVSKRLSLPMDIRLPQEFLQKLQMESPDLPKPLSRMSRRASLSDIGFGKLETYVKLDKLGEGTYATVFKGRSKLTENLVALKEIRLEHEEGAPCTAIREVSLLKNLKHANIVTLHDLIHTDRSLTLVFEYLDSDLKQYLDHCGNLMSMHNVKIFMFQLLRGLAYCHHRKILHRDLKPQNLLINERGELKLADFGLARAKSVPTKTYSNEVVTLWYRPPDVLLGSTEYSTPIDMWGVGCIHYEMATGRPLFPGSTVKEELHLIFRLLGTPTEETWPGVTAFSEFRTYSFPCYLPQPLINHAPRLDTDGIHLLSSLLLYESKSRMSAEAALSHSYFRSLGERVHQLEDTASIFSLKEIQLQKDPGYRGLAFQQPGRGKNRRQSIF

[34] = target: Mitogen-activated protein kinase kinase kinase 5 (Homo sapiens, UniProt Q99683); assay: ASK [MAP3K5(M3K5LGA1)] Takeda global kinase panel
Mitogen-activated protein kinase kinase kinase 5, sequence (Q99683 whole entry): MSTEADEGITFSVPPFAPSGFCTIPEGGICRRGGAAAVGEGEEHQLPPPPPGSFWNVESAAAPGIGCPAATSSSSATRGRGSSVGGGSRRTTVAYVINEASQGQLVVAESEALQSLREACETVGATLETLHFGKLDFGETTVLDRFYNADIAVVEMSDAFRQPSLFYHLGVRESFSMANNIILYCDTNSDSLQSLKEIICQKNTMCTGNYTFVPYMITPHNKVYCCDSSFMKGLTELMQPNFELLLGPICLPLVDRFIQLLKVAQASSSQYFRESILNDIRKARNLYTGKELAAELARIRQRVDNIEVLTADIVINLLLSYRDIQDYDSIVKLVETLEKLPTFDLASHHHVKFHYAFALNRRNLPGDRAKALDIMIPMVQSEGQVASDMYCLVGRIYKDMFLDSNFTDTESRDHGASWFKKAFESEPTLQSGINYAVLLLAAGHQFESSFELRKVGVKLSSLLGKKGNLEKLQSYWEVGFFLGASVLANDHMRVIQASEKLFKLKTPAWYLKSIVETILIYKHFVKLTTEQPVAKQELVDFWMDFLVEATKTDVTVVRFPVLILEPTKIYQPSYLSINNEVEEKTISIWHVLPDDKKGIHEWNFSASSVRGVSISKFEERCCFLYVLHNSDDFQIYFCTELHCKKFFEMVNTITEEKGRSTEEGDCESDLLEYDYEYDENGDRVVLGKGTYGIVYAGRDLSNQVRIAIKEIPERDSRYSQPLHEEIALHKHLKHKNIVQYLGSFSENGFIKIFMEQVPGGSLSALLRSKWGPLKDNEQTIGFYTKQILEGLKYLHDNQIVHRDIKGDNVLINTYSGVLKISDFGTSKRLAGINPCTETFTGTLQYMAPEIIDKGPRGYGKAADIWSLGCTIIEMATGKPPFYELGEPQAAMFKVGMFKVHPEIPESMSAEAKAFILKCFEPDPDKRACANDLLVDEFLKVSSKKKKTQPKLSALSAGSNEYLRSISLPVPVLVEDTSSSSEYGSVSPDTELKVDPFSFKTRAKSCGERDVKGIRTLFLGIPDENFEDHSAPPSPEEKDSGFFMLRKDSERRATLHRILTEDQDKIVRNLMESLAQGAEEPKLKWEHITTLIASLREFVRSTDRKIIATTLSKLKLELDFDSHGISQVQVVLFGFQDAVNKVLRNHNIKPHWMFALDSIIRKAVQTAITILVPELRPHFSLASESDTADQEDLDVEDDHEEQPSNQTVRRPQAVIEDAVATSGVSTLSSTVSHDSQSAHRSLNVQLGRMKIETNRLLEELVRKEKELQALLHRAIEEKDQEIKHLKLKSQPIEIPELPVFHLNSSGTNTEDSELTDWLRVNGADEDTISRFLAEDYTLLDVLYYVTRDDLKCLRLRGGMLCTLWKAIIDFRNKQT

[35] = target: Serine/threonine-protein kinase ULK1 (Homo sapiens, UniProt O75385); assay: ULK1(ULK1LGF1) Takeda global kinase panel
[36] = target: Sodium-dependent serotonin transporter (Homo sapiens) (UniProt P31645); settings: Compound concentration 10.0 uM
Sodium-dependent serotonin transporter (Homo sapiens), sequence (P31645 whole entry, looked up): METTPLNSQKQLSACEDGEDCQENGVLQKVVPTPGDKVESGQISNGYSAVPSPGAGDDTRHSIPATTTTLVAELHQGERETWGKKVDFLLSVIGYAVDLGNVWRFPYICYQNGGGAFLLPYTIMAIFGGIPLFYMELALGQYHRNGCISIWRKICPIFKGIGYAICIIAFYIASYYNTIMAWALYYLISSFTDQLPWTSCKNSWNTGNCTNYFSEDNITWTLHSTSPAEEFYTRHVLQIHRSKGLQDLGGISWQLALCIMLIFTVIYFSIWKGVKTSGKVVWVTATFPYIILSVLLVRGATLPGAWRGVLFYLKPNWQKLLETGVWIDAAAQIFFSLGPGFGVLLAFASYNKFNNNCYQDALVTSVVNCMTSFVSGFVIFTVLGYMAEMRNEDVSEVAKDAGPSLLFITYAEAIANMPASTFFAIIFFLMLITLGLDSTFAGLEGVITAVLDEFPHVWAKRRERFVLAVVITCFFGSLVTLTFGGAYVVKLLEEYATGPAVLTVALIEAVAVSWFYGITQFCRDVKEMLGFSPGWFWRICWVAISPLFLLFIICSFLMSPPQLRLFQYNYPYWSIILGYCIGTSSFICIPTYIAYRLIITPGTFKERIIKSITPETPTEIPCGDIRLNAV

[37] = target: Mitogen-activated protein kinase kinase kinase 12 (Homo sapiens, UniProt Q12852); assay: DLK(M312CGY1) Takeda global kinase panel
[38] = target: Beta-3 adrenergic receptor (Homo sapiens) (UniProt P13945); settings: Compound concentration 10.0 uM
Beta-3 adrenergic receptor (Homo sapiens), sequence (P13945 whole entry, looked up): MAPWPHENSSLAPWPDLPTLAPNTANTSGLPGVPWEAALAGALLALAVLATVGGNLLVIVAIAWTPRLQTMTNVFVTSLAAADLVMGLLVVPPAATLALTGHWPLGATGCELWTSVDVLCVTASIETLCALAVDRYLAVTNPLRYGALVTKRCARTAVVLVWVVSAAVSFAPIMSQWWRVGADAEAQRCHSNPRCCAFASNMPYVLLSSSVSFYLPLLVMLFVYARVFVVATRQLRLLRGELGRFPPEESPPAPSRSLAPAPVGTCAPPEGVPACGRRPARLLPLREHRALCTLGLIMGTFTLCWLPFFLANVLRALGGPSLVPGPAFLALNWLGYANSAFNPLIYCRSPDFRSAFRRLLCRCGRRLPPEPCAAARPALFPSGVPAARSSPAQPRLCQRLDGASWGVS

[39] = target: Interleukin-1 receptor-associated kinase 4 (Homo sapiens, UniProt Q9NWZ3); assay: IRAK4(IRK4LGF1) Takeda global kinase panel
[40] = target: Macrophage colony-stimulating factor 1 receptor (Homo sapiens, UniProt P07333); assay: FmS [CSFR(CSF1LGC1)] Takeda global kinase panel

CN1C(=O)[C@@H](N2CCc3c(nn(Cc4ccccc4)c3Br)C2=O)COc2ccccc21 [TP-030-2]
active: inhibition [12] 71.3%
1000 nM: IC50 (Ephrin type-A receptor 3) | IC50 [1] | IC50 [3] | IC50 [6] | IC50 [8] | IC50 [10] | IC50 (Activin receptor type-1) | IC50 [15] | IC50 [16] | IC50 [18] | IC50 [19] | IC50 [21] | IC50 [22] | IC50 [23] | IC50 [25] | IC50 [26] | IC50 [27] | IC50 [29] | IC50 [30] | IC50 (Ephrin type-A receptor 5) | IC50 [31] | IC50 [32] | IC50 [33] | IC50 [34] | IC50 [35] | IC50 [37] | IC50 [39] | IC50 [40]
16% (not active): inhibition at 3 h, 10 µM [17]
inactive: inhibition [2] -3% | inhibition [4] 5.69% | inhibition [5] 2% | inhibition [7] 17% | inhibition [9] -7.47% | inhibition (Mus musculus) 7% | inhibition [11] 33% | inhibition [13] -7% | inhibition [14] 18% | inhibition [20] -6% | inhibition [24] 9% | inhibition [28] 1.23% | inhibition [36] 22.6% | inhibition [38] 39.3%
